Drawing on US20240308987A1, “SMALL MOLECULE INHIBITOR AGAINST NASOPHARYNGEAL CARCINOMA, PREPARATION METHOD AND APPLICATION THEREOF” (SHENZHEN BAY LABORATORY, priority 2021, published 2024), this text covers EC50 for 32 compounds.

The test has as its system C666-1 cells. Briefly: C666-1 Cell Viability Assay (Resazurin cytotoxicity test). The class given is cell-based. Particulars: Homo sapiens, C6661, EB virus-positive C666-1 cells, 72 hours treatment, 100-0.78 micromole/L, read-out: Inhibitory Rate. On the procedure:
In order to evaluate the inhibitory effect of the small molecular compound of the present disclosure on EBNA1 at the cellular level, a cytotoxicity test was performed.
As mentioned in the Background of the present disclosure, nasopharyngeal carcinoma is a kind of disease highly associated with latent infection of EB virus. EB virus in latent state only expresses limited proteins to maintain its genome replication, among which EBNA1 protein is an essential functional protein. Studies have confirmed that inhibition of EBNA1 can reduce the proliferation of the corresponding nasopharyngeal carcinoma cells or kill them. Therefore, EB virus-positive nasopharyngeal carcinoma tumor cells (C666-1 cells) are selected for test to verify the effect of the small molecular compound of the present disclosure.
During testing, 100 microliters of different cell lines were inoculated onto a transparent 96-well plate, and 5×10^3 cells were inoculated in each well for C666-1 cells. After the cells were cultured in an incubator under […] at 37° C. for 24 hours, 10 microliters of compound with a concentration ranging from 1 mmol/L to 7.8 micromol/L were added to each well (8 points, double dilution, the final concentration was 100-0.78 micromole/L), and treated in the incubator under carbon dioxide at 37° C. for 72 hours. Cell viability was assessed using the redox indicator Resazurin. After addition of 10 microliters of 600 micromole/liter Resazurin to each well and incubation at 37° C. for 3 hours. Using a Tecan microplate reader, the fluorescence signals were detected at an […]. A software was used to fit the inhibition curve and calculate half-maximal effect concentration (EC50). The selectivity of compound activity was assessed by comparing the EC50 values of EB virus-positive and EB virus-negative cell lines.
On the technique in general: Resazurin is reduced to fluorescent resorufin, in cell work by metabolically active cells.
`O=C(O)c1cccc(N2CC(Oc3ccc(Oc4cccnc4)cc3)C2)c1-n1cccc1` [Example 25a, 3-(3-(4-(pyridin-3-yloxy)phenoxy)azetidin-1-yl)-2-(1H-pyrrol-1-yl) benzoic acid]: the EC50 was above 50 µM.

Turning to `COC(=O)c1cccc(N2CC(Oc3ccc(Oc4ccncc4)cc3)C2)c1-n1cccc1` [Example 26, methyl 3-(3-(4-(pyridin-4-yloxy)phenoxy)azetidin-1-yl)-2-(1H-pyrrol-1 - yl) benzoate], the EC50 lay in the range of 1 to 10 µM.

`O=C(O)c1cccc(N2CC(Oc3ccc(Oc4ccncc4)cc3)C2)c1-n1cccc1` [Example 26a, 3-(3-(4-(pyridin-4-yloxy)phenoxy)azetidin-1 - yl)-2-(1H-pyrrol-1-yl) benzoic acid]: the EC50 lay within 10 to 50 µM.

`COC(=O)c1cccc(N2CC(Oc3ccc(COCc4cccnc4)cc3)C2)c1-n1cccc1` [Example 27, methyl 3-(3-(4-((pyridin-3-ylmethoxy)methyl)phenoxy)azetidin-1-yl)-2-(1H-pyrrol-1-yl) benzoate]: the EC50 was 10 to 50 µM.

As to `O=C(O)c1cccc(N2CC(Oc3ccc(COCc4cccnc4)cc3)C2)c1-n1cccc1` [Example 27a, 3-(3-(4-((pyridin-3-ylmethoxy)methyl)phenoxy)azetidin-1-yl)-2-(1H-pyrrol-1-yl) benzoic acid], the EC50 is above 50 µM.

Take `O=C(NO)c1cccc(N2CC(Oc3ccc(COCc4cccnc4)cc3)C2)c1-n1cccc1` [Example 27b, N-Hydroxy-3-(3-(4-((pyridin-3-ylmethoxy)methyl)phenoxy)azetidin-1-yl)-2-(1H-pyrrol-1-yl)benzamide]: the EC50 was below 1 µM.

In the case of `COC(=O)c1cccc(N2CC(Oc3ccc(/C=C/c4cccnc4)cc3)C2)c1-n1cccc1` [Example 28, methyl (E)-3-(3-(4-(2-(pyridin-3-yl)vinyl)phenoxy)azetidin-1-yl)-2-(1H-pyrrol-1-yl) benzoate], the EC50 was above 50 µM.

Take `O=C(O)c1cccc(N2CC(Oc3ccc(/C=C/c4cccnc4)cc3)C2)c1-n1cccc1` [Example 28a, (E)-3-(3-(4-(2-(pyridin-3-yl)vinyl)phenoxy)azetidin-1-yl)-2-(1H-pyrrol-1-yl) benzoic acid]: the EC50 fell in the range of 1 to 10 µM.

Regarding `O=C(NO)c1cccc(N2CC(Oc3ccc(/C=C/c4cccnc4)cc3)C2)c1-n1cccc1` [Example 28b, (E)-N-hydroxy-3-(3-(4-(2-(pyridin-3-yl)vinyl)phenoxy)azetidin-1-yl)-2-(1H-pyrrol-1-yl) benzamide], the EC50 is below 1 µM.

Take `COC(=O)c1cccc(N2CC(Oc3ccc(CCc4cccnc4)cc3)C2)c1-n1cccc1` [Example 29, methyl 3-(3-(4-(2-(pyridin-3-yl)ethyl)phenoxy)azetidin-1-yl)-2-(1H-pyrrol-1-yl) benzoate]: the EC50 is above 50 µM.

Regarding `O=C(O)c1cccc(N2CC(Oc3ccc(CCc4cccnc4)cc3)C2)c1-n1cccc1` [Example 29a, 3-(3-(4-(2-(pyridin-3-yl)ethyl)phenoxy)azetidin-1-yl)-2-(1H-pyrrol-1-yl) benzoic acid], the EC50 was above 50 µM.

As to `COC(=O)c1cccc(N2CC(Oc3ccc(COc4cccs4)cc3)C2)c1-n1cccc1` [Example 30, methyl 2-(1H-pyrrol-1-yl)-3-(3-(4-((thiophen-2-yloxy)methyl)phenoxy)azetidin-1-yl) benzoate], the EC50 is above 50 µM.

As to `O=C(O)c1cccc(N2CC(Oc3ccc(COc4cccs4)cc3)C2)c1-n1cccc1` [Example 30a, 2-(1H-pyrrol-1-yl)-3-(3-(4-((thiophen-2-yloxy)methyl)phenoxy)azetidin-1-yl) benzoic acid], the EC50 was above 50 µM.

With `COC(=O)c1cccc(N2CC(Oc3ccc(NC(=O)c4cccnc4)cc3)C2)c1-n1cccc1` [Example 31, methyl 3-(3-(4-(nicotinamido)phenoxy)azetidin-1-yl)-2-(1H-pyrrol-1-yl) benzoate], the EC50 is 10 to 50 µM.

Consider `O=C(Nc1ccc(OC2CN(c3cccc(C(=O)O)c3-n3cccc3)C2)cc1)c1cccnc1` [Example 31a, 3-(3-(4-(nicotinoamido)phenoxy)azetidin-1-yl)-2-(1H-pyrrol-1-yl) benzoic acid], for which the EC50 was in the range of 10 to 50 µM.

For `O=C(Nc1ccc(OC2CN(c3cccc(C(=O)NO)c3-n3cccc3)C2)cc1)c1cccnc1` [Example 31b, N-(4-((1-(3-(hydroxycarbamoyl)-2-(1H-pyrrol-1-yl)phenyl)azetidin-3-yl)oxy)phenyl) nicotinamide], the EC50 is below 1 µM.

`COC(=O)c1cccc(N2CC(Oc3ccc(COc4ccn(C)n4)cc3)C2)c1-n1cccc1` [Example 32, methyl 3-(3-(4-(((1-methyl-1H-pyrazol-3-yl)oxy)methyl)phenoxy)azetidin-1-yl)-2-(1H-pyrrol-1-yl) benzoate]: the EC50 is above 50 µM.

Consider `Cn1ccc(OCc2ccc(OC3CN(c4cccc(C(=O)O)c4-n4cccc4)C3)cc2)n1` [Example 32a, 3-(3-(4-(((1-methyl-1H-pyrazol-3-yl)oxy)methyl)phenoxy)azetidin-1-yl)-2-(1H-pyrrol-1-yl) benzoic acid], for which the EC50 was above 50 µM.

In the case of `COC(=O)c1cccc(N2CC(Oc3ccc(COc4ccsn4)cc3)C2)c1-n1cccc1` [Example 33, methyl 3-(3-(4-((isothiazol-3-yloxy)methyl)phenoxy)azetidin-1-yl)-2-(1H-pyrrol-1-yl) benzoate], the EC50 was above 50 µM.

For the compound `O=C(O)c1cccc(N2CC(Oc3ccc(COc4ccsn4)cc3)C2)c1-n1cccc1` [Example 33a, 3-(3-(4-((isothiazol-3-yloxy)methyl)phenoxy)azetidin-1-yl)-2-(1H-pyrrol-1-yl) benzoic acid], the EC50 was above 50 µM.

Consider `COC(=O)c1cccc(N2CC(Oc3ccc(NC(=O)Nc4cccnc4)cc3)C2)c1-n1cccc1` [Example 34, methyl 3-(3-(4-(3-(pyridin-3-yl)ureido)phenoxy)azetidin-1-yl)-2-(1H-pyrrol-1-yl) benzoate], for which the EC50 was below 1 µM.

As for `O=C(Nc1ccc(OC2CN(c3cccc(C(=O)O)c3-n3cccc3)C2)cc1)Nc1cccnc1` [Example 34a, 3-(3-(4-(3-(pyridin-3-yl)ureido)phenoxy)azetidin-1-yl)-2-(1H-pyrrol-1-yl) benzoic acid], the EC50 lay within 1 to 10 µM.

As to `O=C(Nc1ccc(OC2CN(c3cccc(C(=O)NO)c3-n3cccc3)C2)cc1)Nc1cccnc1` [Example 34b, N-hydroxy-3-(3-(4-(3-(pyridin-3-yl)ureido)phenoxy)azetidin-1-yl)-2-(1H-pyrrol-1-yl) benzamide], the EC50 was below 1 µM.

Take `COC(=O)c1cccc(N2CC(Oc3ccc(CC(=O)Nc4ccccc4)cc3)C2)c1-n1cccc1` [Example 35, methyl 3-(3-(4-(2-oxo-2-(phenylamino)ethyl)phenoxy)azetidin-1-yl)-2-(1H-pyrrol-1-yl) benzoate]: the EC50 was above 50 µM.

For `O=C(Cc1ccc(OC2CN(c3cccc(C(=O)O)c3-n3cccc3)C2)cc1)Nc1ccccc1` [Example 35a, 3-(3-(4-(2-oxo-2-(phenylamino)ethyl)phenoxy)azetidin-1-yl)-2-(1H-pyrrol-1-yl) benzoic acid], the EC50 was above 50 µM.

Regarding `COC(=O)c1cccc(N2CC(Oc3ccc(/C=C/c4cccnc4)cc3)C2)c1-c1ccccc1` [Example 36, methyl (E)-6-(3-(4-(2-(pyridin-3-yl)vinyl)phenoxy)azetidin-1-yl)-[1,1′-biphenyl]-2-carboxylate], the EC50 was in the range of 10 to 50 µM.

With `O=C(O)c1cccc(N2CC(Oc3ccc(/C=C/c4cccnc4)cc3)C2)c1-c1ccccc1` [Example 36a, (E)-6-(3-(4-(2-(pyridin-3-yl)vinyl)phenoxy)azetidin-1-yl)-[1,1′-biphenyl]-2-carboxylic acid], the EC50 fell in the range of 10 to 50 µM.

Take `O=C(NO)c1cccc(N2CC(Oc3ccc(/C=C/c4cccnc4)cc3)C2)c1-c1ccccc1` [Example 36b, (E)-N-hydroxy-6-(3-(4-(2-(pyridin-3-yl)vinyl)phenoxy)azetidin-1-yl)-[1,1′-biphenyl]-2-carboxamide]: the EC50 was below 1 µM.

In the case of `COC(=O)c1cccc(N2CC(Oc3ccc(NC(=O)Nc4cccc(C(F)(F)F)c4)cc3)C2)c1-c1cccc(Cl)c1` [Example 37, methyl 3′-chloro-6-(3-(4-(3-(3-(trifluoromethyl)phenyl)ureido)phenoxy)azetidin-1-yl)-[1,1′-biphenyl]-2-carboxylate], the EC50 fell in the range of 10 to 50 µM.

Regarding `O=C(Nc1ccc(OC2CN(c3cccc(C(=O)O)c3-c3cccc(Cl)c3)C2)cc1)Nc1cccc(C(F)(F)F)c1` [Example 37a, 3′-chloro-6-(3-(4-(3-(3-(trifluoromethyl)phenyl)ureido)phenoxy)azetidin-1-yl)-[1,1′-biphenyl]-2-carboxylic acid], the EC50 was above 50 µM.

In the case of `COC(=O)c1cccc(N2CC(Oc3ccc(CNc4cccnc4)cc3)C2)c1-c1cccc(Cl)c1` [Example 38, methyl 3′-chloro-6-(3-(4-((pyridin-3-ylamino)methyl)phenoxy)azetidin-1-yl)-[1,1′-biphenyl]-2-carboxylate], the EC50 is 10 to 50 µM.

For the compound `O=C(O)c1cccc(N2CC(Oc3ccc(CNc4cccnc4)cc3)C2)c1-c1cccc(Cl)c1` [Example 38a, 3′-chloro-6-(3-(4-((pyridin-3-ylamino)methyl)phenoxy)azetidin-1-yl)-[1,1′-biphenyl]-2-carboxylic acid], the EC50 lay in the range of 10 to 50 µM.
